Data on eleven compounds can be found in US20090030055A1, “PKC activation as a means for enhancing s[sequence] secretion and improving cognition using bryostatin type compounds” (priority 2002, published 2009).

pEC50, pKi: −log10 of the molar value. “Also recorded” adds a separate entry of the source. Read-outs that look alike come from different tables or passages of the source.

In data set [1] the target is protein kinase C. The note with it: (−)-enantiomer; cited from earlier work.
The test system of data set [2] is sAPPα secretion, AD cell line AG06848. The data set is described as follows: sAPPα secretion immunoblot, AD fibroblasts. It is filed as cell-based, human. The protocol: Cultured skin fibroblasts were obtained from the Coriell Cell Repositories and grown using the general guidelines established for their culture with slight modifications (Cristofalo & Carpentier, 1988; Hirashima et al., 1996). The culture medium in which cells were grown was Dulbecco's modified Eagle's medium (GIBCO) supplemented with 10% fetal calf serum (Biofluids, Inc.). Fibroblasts from control cell lines (AC), cases AG07141 and AG06241, and a familial AD (FAD) case (AG06848) were utilized.
Cells grown to confluence in 6 cm Petri dishes for 5-7 days. On the day of the experiment, medium was replaced with DMEM without serum and left undisturbed for 2 h. Upon completion of the 2 hour serum deprivation; treatment was achieved by direct application to the medium of Bryo, BL and DMSO at the appropriate concentrations. (0.1 and 0.01 nM for bryostatin; 0.1 nM, 0.1 μM, and 1 μM BL). DMSO was less than 1% in all cases. In most cases, medium was collected and processed after 3 hours of treatment for sAPP secretion. Other time points were also used to establish a time course of secretion.
sAPP—Determinations/Measurements of sAPPα
The concentration of secreted APP was measured using conventional immunoblotting techniques, with minor modifications the protocol. Precipitated protein extracts from each dish/treatment were loaded to freshly prepared 10% acrylamide Tris-HCl minigels and separated by SDPAGE. The volume of sample loaded was corrected for total cell protein per dish. Proteins were then electrophoretically transferred to PVDF membranes. Membranes were saturated with 5% non-fat dry milk to block non-specific binding. Blocked membranes were incubated overnight at 4° C. with the commercially available antibody 6E10 (1:500), which recognizes sAPP-alpha in the conditioned medium (SENETEK). After washing, the membranes were incubated at room temperature with horseradish peroxidase conjugated anti-mouse IgG secondary antibody (Jackson's Laboratories). The signal was then detected using enhanced chemiluminescence followed by exposure of Hyperfilm ECL (Amersham). The band intensities were quantified by densitometry using a BioRad GS-800 calibrated scanning densitometer and Multianalyst software (BioRad).

Data set [3] deals with Transgenic mice carrying the V7171 mutation. The data set is described as follows: Transgenic mice carrying the V7171 APP mutation, APP species in brain and health. The note with it: for deaths: 5-6 months old animals. It is filed as in vivo. The protocol:
Transgenic mice carrying the V7171 mutation were treated with BL (1 mg/kg, i.p.; daily) from […] of age (after weaning) for 17 weeks (n=4). The control group (n=4) received vehicle alone (Tween 20 1%, DMSO 25%, 74% PBS). Another experimental group consisted of 5-6 months old animals treated for 7 weeks. Subgroups of these animals were treated with BL 1 mg/kg, daily (n=5); BL 10 mg/kg, daily (n=3; due to two deaths); BL 10 mg/kg, weekly (n=4; one death), LQ12 10 mg/kg, daily (n=5); and LQ12 10 mg/kg, weekly (n=5). Five additional animals received vehicle alone for the same period. After completion of the treatment, animals were euthanized according to K.U.L. (Belgium) guidelines. Brains were removed and prepared for biochemical analyses of APP species.
Immunoblot analysis. The biochemical analysis of intermediates of APP metabolism has been described elsewhere by Dewachter et al. (Aging increased amyloid peptide and caused amyloid plaques in brain of old APP/V7171 transgenic mice by a different mechanism than mutant presenilinl. J. Neurosci. 2000; 20:6452-8.). Briefly, brains were homogenized in 6.5 vol. of ice-cold buffer containing 20 mm Tris-HCl, pH 8.5, and a mixture of proteinase inhibitors (Roche, Darmstadt, Germany). After centrifugation at 135,000×g at 4° C. for 1 hr, the supernatant was centrifuged again for 2 hr at 200,000×g before analysis of soluble amyloid peptides by specified ELISA. The pellets from the first centrifugation were resuspended in TBS containing 2% Triton X-100, 2% Nonidet P40 and proteinase inhibitors and centrifuged at 100.000×g at 4° C. for 1 hr. This protein fraction was used for analysis of membrane-bound APP. Western blotting of membrane bound APP was performed on this protein fraction containing membrane-bound proteins, with monoclonal antibody 8E5. Total secreted APP and a-secretase cleaved secreted APP-a were detected by Western blotting analysis on the supernatant of the first centrifugation, with monoclonal antibody 8E5 and monoclonal antibody JRF14, respectively. Proteins were denatured and reduced in sample buffer containing a final concentration of 2% SDS, 1% 2-ME and separated on 8% TRIS Glycine gels (Novex, San Diego, Calif.). After incubation with appropriate secondary antibodies, all Western blots were developed with the ECL detection system and photographically recorded. Application of a series of diluted sample allowed quantitation. Densitometric scanning of films and normalization were performed using a flatbed optical density scanner and dedicated software for analysis and measurement (Image Master; Pharmacia, Uppsala, Sweden).
ELISA of amyloid peptides. Protein extracts were applied on reversed-phase columns (C18-Sep-pack cartridges; Waters Corporation, Milford, Mass.) and washed with increasing concentrations of acetonitrile (5, 25, and 50%) containing 0.1% trifluoroacetic acid. The last fraction contained the amyloid peptides and was dried in vacuo overnight and dissolved for measurements in ELISA. Sandwich ELISA for human […] peptides was performed using the capture antiserum JRF/cAβ40/10 and 21F12, respectively, and they were developed with monoclonal antibodies JRFcAβ/tot/14 hrpo and 3D6, respectively (Vanderstichele H, Van Kerschaver E, Hese C, Davidsson P, Buyse M A, Andreansen N, Minthon L, Wallin A, Blennow K, Vanmechelen E. Standardization of measurements of beta-amyloid (1-42) in cerebrospinal fluid and plasma. Amyloid 2000; 7: 245-258).
Standard general health assessment and open field were conducted in all animals prior to the biochemical assessments. In addition, a semi-quantitative ad hoc score was devised to measure abdominal contractions that followed the injections (+=weak, <2 min; […]).

Data set [4] deals with sAPP secretion, AD fibroblasts. The note with it: benzolactam-treated cells; cited from earlier work.
Data set [5] concerns sAPP secretion, control fibroblasts. The note with it: cited from earlier work.
For data set [6], the target named is PKC. The note with it: cited from earlier work.
Data set [7] has as its target T1, PKCε (Homo sapiens, UniProt Q02156).
T1 sequence (Q02156 1-737): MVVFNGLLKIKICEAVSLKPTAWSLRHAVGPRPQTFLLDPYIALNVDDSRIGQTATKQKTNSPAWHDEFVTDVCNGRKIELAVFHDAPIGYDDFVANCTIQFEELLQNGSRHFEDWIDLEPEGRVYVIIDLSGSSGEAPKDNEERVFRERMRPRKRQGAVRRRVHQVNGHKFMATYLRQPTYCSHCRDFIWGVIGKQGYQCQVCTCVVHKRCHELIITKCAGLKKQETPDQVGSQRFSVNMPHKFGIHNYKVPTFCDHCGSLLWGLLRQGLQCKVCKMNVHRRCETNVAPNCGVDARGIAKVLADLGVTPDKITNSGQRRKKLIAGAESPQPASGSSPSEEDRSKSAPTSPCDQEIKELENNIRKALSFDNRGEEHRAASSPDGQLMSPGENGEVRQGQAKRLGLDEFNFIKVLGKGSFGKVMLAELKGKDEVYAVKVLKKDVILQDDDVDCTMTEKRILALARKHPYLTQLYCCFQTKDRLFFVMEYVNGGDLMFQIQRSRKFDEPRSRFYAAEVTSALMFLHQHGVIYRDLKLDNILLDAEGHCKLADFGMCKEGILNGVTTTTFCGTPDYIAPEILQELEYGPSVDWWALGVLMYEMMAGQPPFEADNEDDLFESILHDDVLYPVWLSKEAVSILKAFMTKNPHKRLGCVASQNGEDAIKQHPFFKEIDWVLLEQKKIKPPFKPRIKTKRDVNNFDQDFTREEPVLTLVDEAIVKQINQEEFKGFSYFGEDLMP
The note with it: cited from earlier work.

Data set [8] concerns the target PKC. The note with it: competes with [3H]phorbol dibutyrate; read-out: Ki for binding; cited from earlier work.
For data set [9], the system named is squamous cell carcinoma and melanoma. The note with it: used topically; cited from earlier work.
The test system of data set [10] is NCI 60 cell line screen. The note with it: cited from earlier work.
[11] abbreviates: 1 mg/kg i.p. daily from 3 weeks of age for 17 weeks.
The mark [12] stands for this setting: 1 mg/kg i.p. daily from 3 weeks of age for 17 weeks, vs vehicle.
Setting [13] is: 6 months old animals, 7 weeks, 10 mg/kg daily.
[14] abbreviates: 6 months old animals, 7 weeks, 10 mg/kg weekly.
The mark [15] stands for this setting: A-ring bryologs, read-out: affinity for PKC.

With `CCCCCCCCc1ccc2c3c(c[nH]c13)C[C@@H](CO)NC(=O)[C@H](C(C)C)N2C` [octylindolactam V, Octylindolactam V], the negative-log EC50 (pEC50) in data set [1] is 7.54.
In the case of `CCCCCCCCC#Cc1ccc2c(c1)C[C@@H](CO)NC(=O)[C@H](C(C)C)N2C` [BL, benzolactam], the “secretion of sAPPα” value in [2] (AD cell line AG06848, 0.1 nM, three hours of treatment, relative to DMSO) was “no real impact on secretion”. In data set [3] (setting [11]), the APP membrane-bound entry is listed as “no differences”. Also, the “amount of Aβ42” value in data set [3] (setting [11]) is “no differences”. Also, the “total secreted sAPP (sAPPα+sAPPβ)” value in [3] (setting [11]) is “no differences”. Besides, the Aβ40 in brain result is “concomitant and proportional reduction” in data set [3] (setting [12]); “increase” in data set [3] (setting [13]); “slight decrease” in data set [3] (setting [14]). Moreover, the sAPPα in brain entry in data set [3] (setting [12]) is “significant increase”; in data set [3] (6 months old animals, 7 weeks, 1 mg/kg daily) it was “no effect”; in data set [3] (setting [13]), “slight increase”; in data set [3] (setting [14]), “slight increase”. In addition, the general health result in data set [3] (1 mg/kg i.p. daily, 17 weeks) was “no differences in general health”. For the same compound, the “intensity of abdominal contractions after injection” value in data set [3] (1 mg/kg i.p. daily, 17 weeks, vs vehicle group) was “somewhat elevated”. For the same compound, the deaths result in data set [3] (7 weeks, 10 mg/kg daily) is on record as “two deaths”; in data set [3] (7 weeks, 10 mg/kg weekly), “one death”. For the same compound, the “sAPP secretion in AD cells compared to control fibroblasts” value in [4] is listed as “slightly higher”. The “concentration giving significant increases of sAPP secretion” value in data set [5] was 10 µM.
For `CCCCCCCC(=O)OC1C(=CC(=O)OC)CC2CC(CO)OC(=O)CC(O)CCOC(c3ccccc3)CC3CCOC(C=CC(C)(C)C1(O)O2)O3` (stereo not shown) [bryolog 4], the pKi in data set [6] (setting [15]) was 8.64.
On to `CCCCCC1CC1CC1CC1CCCCCCCC(=O)O` (stereo not shown) [DCP-LA, 2-[(2-pentylcyclopropyl)methyl]cyclopropaneoctanoic acid], for which the “concentration of maximal effect on PKCε” value in data set [7] is 100 nM.
Take `CC1=C[C@]23C(=O)[C@@H](C=C(COC(=O)c4ccccc4)[C@@H](O)[C@]2(O)[C@H]1OC(=O)c1ccccc1)[C@H]1[C@@H](C[C@H]3C)C1(C)C` [Ingenol 3,20-dibenzoate]: in data set [8], the pKi was 6.62.
In the case of `C/C=C(/C)C(=O)O[C@H]1C(C)=C[C@]23C(=O)[C@@H](C=C(CO)[C@@H](O)[C@]12O)[C@H]1[C@@H](C[C@H]3C)C1(C)C` [Ingenol-3-angelate], in data set [9], the antitumor activity entry is “possesses antitumor activity”.
`CCCCCCCC(=O)O[C@H]1/C(=C/C(=O)OC)C[C@H]2C[C@H](CO)OC(=O)C[C@H](O)CCOCC[C@@H]3CCO[C@H](/C=C/C(C)(C)[C@]1(O)O2)O3` [Analog 2]: the “affinity for PKC, in words” value in [6] is on record as “high affinity”. Also, the pKi in data set [6] (read-out: PKC Affin) is 8.19.
`CC1=CC[C@H](C)C(C)(C)[C@@H]1/C=C/C(C)=C/CC[C@@]1(CO)[C@H](CCCO)/C(=C(/C)C=O)CC[C@]1(C)O` [Iripallidal]: in data set [10], the “G150 (concentration required to inhibit growth by 50%)” value is recorded as “micromolar to nanomolar range”.
With `CCCCCCCC(=O)OC1C(=CC(=O)OC)CC2CC(CO)OC(=O)CC(O)CCOC(C(C)(C)C)CC3CCOC(C=CC(C)(C)C1(O)O2)O3` (stereo not shown) [bryolog 3], in data set [6] (setting [15]), the pKi was 8.19.
With `CN[C@@H]1C[C@H]2O[C@@](C)([C@@H]1OC)n1c3ccccc3c3c4c(c5c6ccccc6n2c5c31)C(=O)NC4` [staurosporin], the “effect of pre-treatment on bryostatin-induced sAPPα secretion” value in data set [2] (100 nM pre-treatment, bryostatin 0.1 nM) is listed as “abolished the effects of 0.1 nM bryostatin; also recorded: completely abolished the effect”.
For `CCCCCCCC(=O)OC1C(=CC(=O)OC)CC2CC(CO)OC(=O)CC(O)CCOC(CCCc3ccc(Br)cc3)CC3CCOC(C=CC(C)(C)C1(O)O2)O3` (stereo not shown) [bryolog 5], the pKi in [6] (setting [15]) was 8.72.

A word on the pEC50: it is −log10 of the EC50, conventionally taken in molar units.
